The values below come from patent US12459922B2 (Gilead Sciences, Inc., priority 2022, dated 2025).

In this test the test system is endogenous cellular STAT1 (phosphorylated at Tyr701) in NCI-H1373 cells. As to the kind of experiment: Phospho-STAT1 (Tyr701) LANCE Ultra TR-FRET Detection Assay. It counts as cell-based. The settings on record: Homo sapiens, NCI-H1373, 48 h, phospho-STAT1 (Tyr701) induction, read-out: NH1373 pSTAT1 EC50. As to the method:
Phospho-STAT1 (Tyr701 LANCE Ultra TR-FRET Detection Assay
d. LANCE Ultra phospho-STAT1 (Tyr701) kits are designed for the detection of phosphorylated STAT1 in cell lysates using a simple, homogeneous LANCE Ultra sandwich assay (Cat. #TRF4028M). This assay is intended for assessing compound induction of endogenous levels of cellular STAT1 (phosphorylated at Tyr701) in NCI-H1373 cells. The NCI-H1373 cells are cultured in RPMI 1640 media containing 10% heat inactivated FBS, GlutaMAX, 1% Penicillin-Streptomycin. An Echo acoustic liquid handler is used to transfer 60 nanoliters of compound dilutions using the Echo Qualified, 384-well polypropylene microplate clear flat bottom source plates into a Greiner (#781080) cell culture microplate. NCI-H1373 cells are seeded into these compound-spotted culture plates at 30,000 cells/well in a 60 uL volume in growth media. The plates are incubated in a 5% CO2 humidified incubator at 37° C. for 48 hours. […] After spinning the plate down at 300 rpm for 1 min, the plate is read on an EnVision plate reader set up for Eu3+ Cryptate and fluorescence emission is measured at two different wavelengths (665 nm and 620 nm). The HTRF ratio is then calculated […] for each well to determine the amount of pSTAT1 in the cell lysate, and the data is then normalized to 10 uM GS-1154611 positive and DMSO negative controls.
(In TR-FRET formats the signal depends on donor and acceptor labels being close together.)

For `O=c1[nH]ncc(N[C@H](CCCn2ccc3cc(-c4ncc(Cl)cn4)c(F)c(F)c3c2=O)COC(F)F)c1C(F)(F)F` [Example 392, (R)-6-(5-chloropyrimidin-2-yl)-2-(5-(difluoromethoxy)-4-((6-oxo-5-(trifluoromethyl)-1,6-dihydropyridazin-4-yl)amino)pentyl)-7,8-difluoroisoquinolin-1(2H)-one], the EC50 (as a rule, the midpoint of the concentration-response curve) stood at 0.0015 µM. The same measure for `O=c1[nH]ncc(N[C@H](CCCn2cnc3cc(-c4ccc(C(F)(F)F)cn4)c(F)cc3c2=O)COC(F)F)c1C(F)(F)F` [Example 403, (R)-3-(5-(difluoromethoxy)-4-((6-oxo-5-(trifluoromethyl)-1,6-dihydropyridazin-4-yl)amino)pentyl)-6-fluoro-7-(5-(trifluoromethyl)pyridin-2-yl)quinazolin-4(3H)-one]: 0.00365 µM; for `COc1cnc(-c2cc3ccn(CCC[C@H](C)Nc4cn[nH]c(=O)c4C(F)(F)F)c(=O)c3cc2F)nc1NC1(C(F)F)CC1` [Example 219, (S)-6-(4-((1-(difluoromethyl)cyclopropyl)amino)-5-methoxypyrimidin-2-yl)-7-fluoro-2-(4-((6-oxo-5-(trifluoromethyl)-1,6-dihydropyridazin-4-yl)amino)pentyl)isoquinolin-1(2H)-one]: 0.43 µM; for `C[C@@H](C[C@H](O)Cn1ccc2cc(-c3ncc(C(F)(F)F)cn3)c(F)cc2c1=O)Nc1cn[nH]c(=O)c1C(F)(F)F` (single isomer, unassigned) [Example 479]: 0.0828 µM. In the case of `C[C@@H](CCCn1ccc2cc(-c3ncc(C4CC4)c(N)n3)c(F)cc2c1=O)Nc1cn[nH]c(=O)c1C(F)(F)F` [Example 107, 6-(4-amino-5-cyclopropyl-pyrimidin-2-yl)-7-fluoro-2-[(4S)-4-[[6-oxo-5-(trifluoromethyl)-1H-pyridazin-4-yl]amino]pentyl]isoquinolin-1-one], the EC50 worked out at 0.00222 µM.

Take `Nc1nc(-c2cc3ccn(C[C@@H]4CCC[C@H](Nc5cn[nH]c(=O)c5C(F)(F)F)C4)c(=O)c3c(F)c2F)cnc1C(F)(F)F` [Example 257, 6-(6-amino-5-(trifluoromethyl)pyrazin-2-yl)-7,8-difluoro-2-(((1R,3S)-3-((6-oxo-5-(trifluoromethyl)-1,6-dihydropyridazin-4-yl)amino)cyclohexyl)methyl)isoquinolin-1(2H)-one]: the 50% effective concentration (EC50) came to 0.0251 µM. The same measure for `O=c1[nH]ncc(NCCCCn2ccc3cc(-c4ncc(C(F)(F)F)cn4)c(F)c(F)c3c2=O)c1C(F)(F)F` [Example 85, 7,8-difluoro-2-(4-((6-oxo-5-(trifluoromethyl)-1,6-dihydropyridazin-4-yl)amino)butyl)-6-(5-(trifluoromethyl)pyrimidin-2-yl)isoquinolin-1(2H)-one]: 0.113 µM.

Consider `O=c1[nH]ncc(N[C@H]2CCC[C@@H](Cn3ccc4cc(-c5ncc(C(F)F)cn5)c(F)c(F)c4c3=O)C2)c1C(F)(F)F` [Example 233], for which the EC50 turned out to be 0.00195 µM. The same measure for `Nc1nc(-c2cc3ccn(CCC[C@H](COC(F)F)Nc4cn[nH]c(=O)c4C(F)(F)F)c(=O)c3cc2F)ccc1Cl` [Example 410, (R)-6-(6-amino-5-chloropyridin-2-yl)-2-(5-(difluoromethoxy)-4-((6-oxo-5-(trifluoromethyl)-1,6-dihydropyridazin-4-yl)amino)pentyl)-7-fluoroisoquinolin-1(2H)-one]: 0.00099 µM; for `C[C@@H]1C[C@@H](CCCn2cnc3cc(-c4ncc(C(F)(F)F)cn4)c(F)cc3c2=O)N(c2cn[nH]c(=O)c2C(F)(F)F)C1` [Example 176, 6-fluoro-3-[3-[(2R,4R)-4-methyl-1-[6-oxo-5-(trifluoromethyl)-1H-pyridazin-4-yl]pyrrolidin-2-yl]propyl]-7-[5-(trifluoromethyl)pyrimidin-2-yl]quinazolin-4-one]: 0.186 µM. For `Nc1nc(-c2cc3ncn(CC[C@H]4CCC[C@@H]4Nc4cn[nH]c(=O)c4C(F)(F)F)c(=O)c3cc2F)ncc1Cl` [Example 449, 7-(4-amino-5-chloropyrimidin-2-yl)-6-fluoro-3-(2-((1R,2S)-2-((6-oxo-5-(trifluoromethyl)-1,6-dihydropyridazin-4-yl)amino)cyclopentyl)ethyl)quinazolin-4(3H)-one] the value was 0.00642 µM; for `Nc1nc(-c2cc3ccn(CCC[C@H](COC(F)F)Nc4cn[nH]c(=O)c4C(F)(F)F)c(=O)c3cc2F)ccc1F` [Example 409, (R)-6-(6-amino-5-fluoropyridin-2-yl)-2-(5-(difluoromethoxy)-4-((6-oxo-5-(trifluoromethyl)-1,6-dihydropyridazin-4-yl)amino)pentyl)-7-fluoroisoquinolin-1(2H)-one], 0.00449 µM. The same measure for `Nc1cc(-c2cc3ccn(C[C@@H]4CCC[C@H](Nc5cn[nH]c(=O)c5C(F)(F)F)C4)c(=O)c3cc2F)cnc1C(F)(F)F` [Example 271, 6-(5-amino-6-(trifluoromethyl)pyridin-3-yl)-7-fluoro-2-(((1R,3S)-3-((6-oxo-5-(trifluoromethyl)-1,6-dihydropyridazin-4-yl)amino)cyclohexyl)methyl)isoquinolin-1(2H)-one]: 0.211 µM. Consider `CC[C@@H](CCCn1ccc2cc(-c3cnc(C(F)(F)F)c(N)n3)c(F)c(F)c2c1=O)Nc1cn[nH]c(=O)c1C(F)(F)F` [Example 362, (S)-6-(6-amino-5-(trifluoromethyl)pyrazin-2-yl)-7,8-difluoro-2-(4-((6-oxo-5-(trifluoromethyl)-1,6-dihydropyridazin-4-yl)amino)hexyl)isoquinolin-1(2H)-one], for which the EC50 came to 0.0157 µM.

In the case of `C[C@@H](CCCn1ccc2cc(-c3ncc(C(F)(F)F)c(N4CC(C#N)C4)n3)c(F)cc2c1=O)Nc1cn[nH]c(=O)c1C(F)(F)F` [Example 119, (S)-1-(2-(7-fluoro-1-oxo-2-(4-((6-oxo-5-(trifluoromethyl)-1,6-dihydropyridazin-4-yl)amino)pentyl)-1,2-dihydroisoquinolin-6-yl)-5-(trifluoromethyl)pyrimidin-4-yl)azetidine-3-carbonitrile], the EC50 is 0.00336 µM.

`COc1cnc(-c2cc3ccn(CCC[C@H](C)Nc4cn[nH]c(=O)c4C(F)(F)F)c(=O)c3cc2F)nc1N1CC2(COC2)C1` [Example 205]: the EC50 came out at 0.0758 µM. The same measure for `COc1ncc(-c2cc3ccn(CCC[C@H](COC(F)F)Nc4cn[nH]c(=O)c4C(F)(F)F)c(=O)c3cc2F)nc1N` [Example 415, (R)-6-(6-amino-5-methoxypyrazin-2-yl)-2-(5-(difluoromethoxy)-4-((6-oxo-5-(trifluoromethyl)-1,6-dihydropyridazin-4-yl)amino)pentyl)-7-fluoroisoquinolin-1(2H)-one]: 0.00249 µM. For `O=c1[nH]ncc(N[C@H]2CCC[C@@H](Cn3ccc4cc(-c5ncc(C(F)F)cn5)c(F)cc4c3=O)C2)c1C(F)(F)F` [Example 226, 6-[5-(difluoromethyl)pyrimidin-2-yl]-7-fluoro-2-[[(1R,3S)-3-[[6-oxo-5-(trifluoromethyl)-1H-pyridazin-4-yl]amino]cyclohexyl]methyl]isoquinolin-1-one] the value was 0.00534 µM; for `CC[C@@H](CCCn1ccc2cc(-c3ncc(C(F)(F)F)cn3)c(F)c(F)c2c1=O)Nc1cn[nH]c(=O)c1C(F)(F)F` [Example 353, (S)-7,8-difluoro-2-(4-((6-oxo-5-(trifluoromethyl)-1,6-dihydropyridazin-4-yl)amino)hexyl)-6-(5-(trifluoromethyl)pyrimidin-2-yl)isoquinolin-1(2H)-one], 0.0161 µM.

`C[C@@H](CC(F)(F)Cn1ccc2cc(-c3ncc(C(F)(F)F)cn3)c(F)cc2c1=O)Nc1cn[nH]c(=O)c1C(F)(F)F` [Example 89, 2-[(4S)-2,2-difluoro-4-[[6-oxo-5-(trifluoromethyl)-1H-pyridazin-4-yl]amino]pentyl]-7-fluoro-6-[5-(trifluoromethyl)pyrimidin-2-yl]isoquinolin-1-one]: the EC50 stood at 0.0405 µM. For `C[C@@H](CCCn1ccc2cc(-c3ncc(C#N)c(N)n3)c(F)cc2c1=O)Nc1cn[nH]c(=O)c1C(F)(F)F` [Example 101, 4-amino-2-[7-fluoro-1-oxo-2-[(4S)-4-[[6-oxo-5-(trifluoromethyl)-1H-pyridazin-4-yl]amino]pentyl]-6-isoquinolyl]pyrimidine-5-carbonitrile] the value was 0.0126 µM; for `C[C@@H](CCCn1ccc2cc(-c3cc(C(F)(F)F)c(N)cn3)c(F)cc2c1=O)Nc1cn[nH]c(=O)c1C(F)(F)F` [Example 97, (S)-6-(5-amino-4-(trifluoromethyl)pyridin-2-yl)-7-fluoro-2-(4-((6-oxo-5-(trifluoromethyl)-1,6-dihydropyridazin-4-yl)amino)pentyl)isoquinolin-1(2H)-one], 0.0673 µM; for `COc1cnc(-c2cc3ccn(CCC[C@@H]4C[C@@H](C)CN4c4cn[nH]c(=O)c4C(F)(F)F)c(=O)c3cc2F)nc1N` [Example 175, 6-(4-amino-5-methoxypyrimidin-2-yl)-7-fluoro-2-[3-[(2R,4R)-4-methyl-1-[6-oxo-5-(trifluoromethyl)-1H-pyridazin-4-yl]pyrrolidin-2-yl]propyl]isoquinolin-1-one], 0.0575 µM.
